# Laboratory results published in PubChem BioAssay AID844 (SRMLSC, 2007).
# Active and inactive are the calls of the source. How the calls were made is not given here.
# System: MRP1 cells, doxorubicin viability shift, 10 uM compound
# Test: viability protection against doxorubicin, MRP-1 line – cell-based, doxorubicin EC50 shift, dose response (AID 844)
# Conditions: for EC50: measured here: doxorubicin EC50 with compound
Structure (SMILES),fold increase in Dox EC50,EC50 [µM]
Cc1cccc2c3nc4ccccc4nc3n(CCCN3C(=O)c4ccccc4C3=O)c12,0.13 (inactive),0.717
COc1ccc(OC)c(NC(=O)CSc2nnc(CNC(=O)COc3ccc(Cl)cc3)o2)c1,1.11 (inactive),5.98
COc1cccc(/C=N/N2C(=O)CSC2=S)c1O,1.31 (inactive),7.08
CCN(CC(=O)NC(C)C)C(=O)c1ccc(Cl)cc1,0.45 (inactive),2.41
O=C(Nc1ccc(N2CCCCC2)c(Cl)c1)c1ncn[nH]1,0.78 (inactive),4.22
CCOc1ccc2nc(SCC#N)c(C#N)cc2c1,0.3 (inactive),1.62
CCOC(=O)c1c(-c2ccc(F)cc2)csc1NC(=O)c1c(-c2ccccc2)noc1C,0.56 (inactive),3
FC(F)(F)c1cccc(CNc2ncccc2-c2nc3cc(Cl)ccc3o2)c1,0.93 (inactive),5.03
CCc1nnc(NC(=O)CCC(=O)N2CCN(CCOc3ccc(C)cc3)CC2)s1,1.24 (inactive),6.7
CC(OC(=O)c1snc(C(=O)NC2CCCCC2)c1N)C(=O)NC(C)(C)C (configuration not stated),1.1 (inactive),5.93
CC1=C(C(=O)Nc2ccccc2C)C(c2ccc(C)o2)N2C(=O)CSC2=N1 (configuration not stated),1.01 (inactive),5.43
Cc1nc(/N=C(\N)NC(=O)N2c3ccccc3Sc3ccccc32)nc2ccccc12,0.95 (inactive),5.12
Cc1ccc(N=Nc2c(N)[nH]n3c(=O)cc(-c4ccccc4)nc23)cc1,0.08 (inactive),0.452
Cc1ccc(COc2cccc3c2CCN(Cc2ccc(F)cc2)C3=O)cc1,1.02 (inactive),5.52
Cc1cc(C)nc(NN2C(=O)/C(=C/c3ccc(O)cc3)SC2=S)n1,1.39 (inactive),7.51
COC(=O)N/N=C/c1ccc(-c2ccc(C)c(Cl)c2)o1,0.63 (inactive),3.41
O=[N+]([O-])c1ccc(O)c(N=Cc2sc3ccccc3c2O)c1,0.08 (inactive),0.457
CC(CCc1ccccc1)NC(=O)C1CCN(C(=O)c2sccc2-n2cccc2)CC1 (configuration not stated),0.28 (inactive),1.51
COc1ccccc1-c1nc(C#N)c(N2CCc3ccccc3C2)o1,0.37 (inactive),1.99
O=C(COc1ccc2oc3c(c2c1)CCCC3)Nc1ccccn1,1.27 (inactive),6.85
COc1ccc(C2=NN(C(=O)c3cccs3)C(c3ccc(OC)cc3)C2)cc1 (configuration not stated),1.06 (inactive),5.7
Cc1ccccc1NC(=O)CC1SC(=O)N(c2ccccc2)C1=O (configuration not stated),1.35 (inactive),7.29
Cc1cc(N/N=C/c2ccccc2Cl)nc(NCc2ccccc2)n1,0.2 (inactive),1.08
C[C@H](C(=O)C=[N+]=[N-])N1C(=O)c2ccccc2C1=O,0.56 (inactive),3.04
CCCCc1nnc(NC(=O)CSc2nc(=O)cc(N)n2-c2cccc(C)c2)s1,1.31 (inactive),7.08
Cc1ccc(N2C(=O)NC(=O)/C(=C\c3ccsc3)C2=O)cc1C,0.8 (inactive),4.33

Structure (SMILES),fold increase in Dox EC50,EC50 [µM]
N#Cc1c(-c2ccccc2)nc(SCC(=O)N(c2ccccc2)c2ccccc2)[nH]c1=O,1.08 (inactive),5.86
COc1cc(C2NC(=O)NC(C)=C2C(=O)OCc2ccc(C)cc2)cc(OC)c1O (configuration not stated),0.68 (inactive),3.65
Clc1ccc(OCc2nnnn2-c2ccccc2)cc1,0.96 (inactive),5.21
CC1=C(C(=O)Nc2ccccc2)C(c2ccc(C)o2)N2C(=O)CSC2=N1 (configuration not stated),0.84 (inactive),4.55
O=C(CC(c1ccccc1)c1ccccc1)Nc1ncn[nH]1,0.75 (inactive),4.03
COc1ccc(-c2[nH]ncc2-c2cnn(-c3ccccc3)c2)c(O)c1,0.27 (inactive),1.43
COc1ccc(N2Cc3cccc(C(=O)NC(C)CCc4ccco4)c3C2=O)cc1 (configuration not stated),0.37 (inactive),2.02
O=C1CC(N2CCN(c3nc4ccccc4s3)CC2)C(=O)N1c1ccc(F)cc1 (configuration not stated),1.18 (inactive),6.38
CCc1nnc(NC(=O)C2CCCN2S(=O)(=O)c2ccc(F)cc2)s1 (configuration not stated),1.03 (inactive),5.54
CC1(C)Cc2c(sc3nnn(Cc4ccc(Cl)cc4)c(=O)c23)CO1,0.85 (inactive),4.57
O=C(c1ccco1)N1CCN=C1SCc1ccc(F)cc1,0.87 (inactive),4.71
O=C1CCCC(O)=C1N=Nc1ccc2c(c1)OCO2,1.17 (inactive),6.29
Cc1cccc(-n2c(SCC(=O)Nc3ncc(Cl)cc3Cl)nc3ccccc32)c1,0.81 (inactive),4.37
CC1CCN(c2ncnc3c2cnn3-c2ccccc2)CC1,0.31 (inactive),1.65
O=C(NNC(=O)c1cccc(S(=O)(=O)N2CCN(c3ccccc3)CC2)c1)c1ccc(Cl)cc1,1.47 (inactive),7.95
CCCN1C(=O)/C(=N\OCC(=O)Nc2ccc(C(C)C)cc2)c2ccccc21,0.74 (inactive),3.99
COc1ccc(OC)c(-c2cc(C(=O)Nc3c(C)nn(Cc4ccccc4Cl)c3C)no2)c1,0.55 (inactive),2.99
COc1ccccc1-c1nnc(SC2CCc3ccccc3NC2=O)s1 (configuration not stated),0.55 (inactive),2.98
CNc1oc(-c2ccc(C)cc2)nc1P(=O)(c1ccccc1)c1ccccc1,0.95 (inactive),5.13
CCCCCC(=O)Nc1ccc(S(=O)(=O)Nc2ccc(Cl)nn2)cc1,1.12 (inactive),6.04
O=C(c1ccco1)N1CCN(c2nc(C3CC3)nc3c2nnn3Cc2ccccc2Cl)CC1,0.32 (inactive),1.7
CCOC(=O)C1=C(C)N=C2SC(CC)C(=O)N2C1c1cccc(F)c1 (configuration not stated),1.14 (inactive),6.14
O=C(CC1SC(=O)N(c2ccccc2)C1=O)Nc1ccccc1 (configuration not stated),1.19 (inactive),6.42
COc1ccc(Cl)cc1N1C(=O)C2CCCN2C1c1ccc(F)c(F)c1 (configuration not stated),0.85 (inactive),4.61
CCSC(C)CC1C/C(=N/O)c2c(CC)noc2C1 (configuration not stated),1.27 (inactive),6.85
O=C(CSCc1ccc(Cl)cc1)NCC1CCCO1 (configuration not stated),1.1 (inactive),5.96

Structure (SMILES),fold increase in Dox EC50,EC50 [µM]
O=[N+]([O-])c1ccc(N/N=C/c2ccccc2)c(F)c1,0.64 (inactive),3.44
CC1(C)O[C@@H]2C[C@H]3[C@@H]4C[C@H](F)C5=CC(=O)CC[C@]5(C)[C@H]4[C@@H](O)C[C@]3(C)[C@]2(C(=O)CO)O1,0.65 (inactive),3.52
N#C/C(=N\Nc1ccccc1)C(=N)N1CCOCC1,1.15 (inactive),6.23
CCC(C)c1ccc(O)c(NC(=O)c2ncn[nH]2)c1 (configuration not stated),0.97 (inactive),5.25
CC(C)Cn1c2c(c(O)c(C(=O)Nc3ccc(F)cc3)c1=O)CCCC2,0.95 (inactive),5.15
Cc1cc(C)n(CCc2nc(-c3ccc(-c4ccccc4)cc3)cs2)n1,1.82,9.8
CCc1nnc(NC(=O)C(C)N2C(=O)C3C4C=CC(C4)C3C2=O)s1 (configuration not stated),1.01 (inactive),5.44
CCc1ccc(/C(C)=N/Nc2cc(Cl)nc(C)n2)cc1,0.69 (inactive),3.75
C=CCOc1c(CNc2ccc(C(=O)O)cc2)cccc1OCC,0.59 (inactive),3.21
COCCOC(=O)c1c(C)oc2ccc(OCC=C(C)C)cc12,0.5 (inactive),2.69
CC(C)Cc1nnc(NC(=O)CSc2ncn[nH]2)s1,0.9 (inactive),4.87
CCOC(=O)Cc1csc(NC(=O)c2c(-c3ccccc3)noc2C)n1,0.44 (inactive),2.4
Cc1cccc2cc(CN(Cc3ccco3)S(=O)(=O)c3ccc4c(c3)OCCO4)c(=O)[nH]c12,0.96 (inactive),5.19
CC1CCC/C(=C(\C#N)c2nc(-c3cc4ccccc4oc3=O)cs2)C1 (configuration not stated),0.55 (inactive),2.96
O=C(NNC(=O)c1cccnc1)Nc1cccc2ccccc12,0.66 (inactive),3.57
Cc1nc(C)c(C(=O)NNS(=O)(=O)c2ccccc2)s1,0.83 (inactive),4.48
CCOC(=O)C(C(=O)Nc1nc2ccccc2s1)C1CCCCC1 (configuration not stated),1 (inactive),5.39
COc1cc(S(=O)(=O)Nc2cccc(C)c2)ccc1NC(=O)c1ccncc1,0.6 (inactive),3.26
Cc1c(C)n(C)c2ccc(C(=O)NCc3cccs3)cc12,1.06 (inactive),5.75
C=CCc1c(C)nc(-c2ccccc2)nc1N/N=C/c1ccccc1,0.87 (inactive),4.7
CCn1c(COc2ccc(C)cc2)nnc1SCc1nc2ccccc2[nH]1,0.88 (inactive),4.76
COc1ccc(CN=C2NC(=O)CC(C(=O)Nc3ccc(F)cc3)S2)cc1 (configuration not stated),1.01 (inactive),5.47
Cc1nnc2sc(-c3ccncc3)nn12,0.8 (inactive),4.31
CC(C)(C)c1ccc(OCC(O)CSc2ncn[nH]2)cc1 (configuration not stated),0.88 (inactive),4.74
